In ChEMBL document CHEMBL1201861, “Genomics of Drug Sensitity in Cancer screening data, Wellcome Trust Sanger Institute”:

What was measured:
Test in all cases: cells
[1] = tested on: DBTRG-05MG; type: functional, cell-based; settings: Homo sapiens;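 also: cell viability assay measuring growth inhibition of human DBTRG-05MG cells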
Description: SANGER: Inhibition of human DBTRG-05MG cell growth in a cell viability assay.

[2] = tested on: LCLC-103H cell line; type: functional, cell-based; settings: Homo sapiens
Description: SANGER: Inhibition of human LCLC-103H cell growth in a cell viability assay.

[3] = tested on: Panc1005; type: functional, cell-based; settings: Homo sapiens;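 also: growth inhibition of human PANC-10-05 cells, measured by a cell viability assay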
Description: SANGER: Inhibition of human PANC-10-05 cell growth in a cell viability assay.

[4] = tested on: UMUC3; type: functional, cell-based; settings: Homo sapiens;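 also: growth inhibition of human UM-UC-3 cells, read out with a cell viability assay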
Description: SANGER: Inhibition of human UM-UC-3 cell growth in a cell viability assay.

[5] = tested on: GCT; type: functional, cell-based; settings: Homo sapiens;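 also: GCT cell line proliferation inhibition, read out with a cell viability assay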
Description: SANGER: Inhibition of human GCT cell growth in a cell viability assay.

[6] = tested on: NCI-H520; type: functional, cell-based; settings: Homo sapiens;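 also: growth inhibition of NCI-H520 cells, measured by a cell viability assay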
Description: SANGER: Inhibition of human NCI-H520 cell growth in a cell viability assay.

[7] = tested on: NB14; type: functional, cell-based; settings: Homo sapiens;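 also: growth inhibition of NB14 cells measured with a cell viability assay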
Description: SANGER: Inhibition of human NB14 cell growth in a cell viability assay.

[8] = tested on: HCC1806; type: functional, cell-based; settings: Homo sapiens;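 also: growth inhibition of the cancer cell line, determined with a cell viability assay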
Description: SANGER: Inhibition of human HCC1806 cell growth in a cell viability assay.

[9] = tested on: NY; type: functional, cell-based; settings: Homo sapiens
Description: SANGER: Inhibition of human NY cell growth in a cell viability assay.

[10] = tested on: T-24; type: functional, cell-based; settings: Homo sapiens;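 also: growth inhibition of T-24 cells, read out with a cell viability assay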
Description: SANGER: Inhibition of human T-24 cell growth in a cell viability assay.

[11] = tested on: D-336MG; type: functional, cell-based; settings: Homo sapiens
Description: SANGER: Inhibition of human D-336MG cell growth in a cell viability assay.

[12] = tested on: NCI-H1573; type: functional, cell-based; settings: Homo sapiens;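 also: growth inhibition of NCI-H1573 cells, read out with a cell viability assay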
Description: SANGER: Inhibition of human NCI-H1573 cell growth in a cell viability assay.

[13] = tested on: Hs-578T; type: functional, cell-based; settings: Homo sapiens
Description: SANGER: Inhibition of human Hs-578-T cell growth in a cell viability assay.

[14] = tested on: FTC-133; type: functional, cell-based; settings: Homo sapiens
[15] = tested on: A204; type: functional, cell-based; settings: Homo sapiens;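 also: growth inhibition of human A204 cells, read out with a cell viability assay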
Description: SANGER: Inhibition of human A204 cell growth in a cell viability assay.

[16] = tested on: HCC1937; type: functional, cell-based; settings: Homo sapiens;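 also: growth inhibition measured with a cell viability read-out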
Description: SANGER: Inhibition of human HCC1937 cell growth in a cell viability assay.

[17] = tested on: NCI-H2228; type: functional, cell-based; settings: Homo sapiens;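 also: growth inhibition of human NCI-H2228 cells, read out by a cell viability assay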
Description: SANGER: Inhibition of human NCI-H2228 cell growth in a cell viability assay.

[18] = tested on: MKN-7; type: functional, cell-based; settings: Homo sapiens;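 also: growth inhibition of MKN-7 cells, read out with a cell viability assay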
Description: SANGER: Inhibition of human MKN7 cell growth in a cell viability assay.

[19] = tested on: BPH-1; type: functional, cell-based; settings: Homo sapiens;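 also: cell viability assay measuring growth inhibition of human BPH-1 cells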
Description: SANGER: Inhibition of human BPH-1 cell growth in a cell viability assay.

[20] = tested on: COLO-741; type: functional, cell-based; settings: Homo sapiens
Description: SANGER: Inhibition of human COLO-741 cell growth in a cell viability assay.

[21] = tested on: LCLC-97TM1; type: functional, cell-based; settings: Homo sapiens;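 also: cell viability assay measuring growth inhibition of human LCLC-97TM1 cells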
Description: SANGER: Inhibition of human LCLC-97TM1 cell growth in a cell viability assay.

[22] = tested on: PANC-08-13; type: functional, cell-based; settings: Homo sapiens;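 also: cell growth inhibition, measured with a cell viability assay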
Description: SANGER: Inhibition of human PANC-08-13 cell growth in a cell viability assay.

[23] = tested on: SK-MES-1; type: functional, cell-based; settings: Homo sapiens;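 also: growth inhibition of human SK-MES-1 cells, read out with a cell viability assay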
Description: SANGER: Inhibition of human SK-MES-1 cell growth in a cell viability assay.

[24] = tested on: GAMG; type: functional, cell-based; settings: Homo sapiens;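 also: cell growth inhibition measured by a viability assay in the GAMG human cell line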
Description: SANGER: Inhibition of human GAMG cell growth in a cell viability assay.

[25] = tested on: SCC-25; type: functional, cell-based; settings: Homo sapiens;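 also: growth inhibition of SCC-25 cells, measured with a cell viability assay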
Description: SANGER: Inhibition of human SCC-25 cell growth in a cell viability assay.

[26] = tested on: KYSE-70 cell line; type: functional, cell-based; settings: Homo sapiens;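 also: cell viability assay read-out, with IC50 expressing suppression of KYSE-70 cell growth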
Description: SANGER: Inhibition of human KYSE-70 cell growth in a cell viability assay.

[27] = tested on: MKN-45; type: functional, cell-based; settings: Homo sapiens;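 also: growth inhibition of human MKN-45 cells, measured with a cell viability assay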
Description: SANGER: Inhibition of human MKN45 cell growth in a cell viability assay.

[28] = tested on: OE19; type: functional, cell-based; settings: Homo sapiens;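 also: growth inhibition of OE19 cells, measured through a cell viability read-out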
Description: SANGER: Inhibition of human OE19 cell growth in a cell viability assay.

[29] = tested on: UMC-11; type: functional, cell-based; settings: Homo sapiens;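 also: growth inhibition of UMC-11 cells, read out with a cell viability assay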
Description: SANGER: Inhibition of human UMC-11 cell growth in a cell viability assay.

[30] = tested on: MOLT-13; type: functional, cell-based; settings: Homo sapiens;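 also: IC50 for suppression of MOLT-13 cell growth, read out with a cell viability assay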
Description: SANGER: Inhibition of human MOLT-13 cell growth in a cell viability assay.

[31] = tested on: CWR22R; type: functional, cell-based; settings: Homo sapiens, 22Rv1;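 also: growth inhibition of 22Rv1 cells, read out with a cell viability assay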
Description: SANGER: Inhibition of human 22RV1 cell growth in a cell viability assay.

[32] = tested on: RO82-W-1; type: functional, cell-based; settings: Homo sapiens;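 also: growth inhibition of human RO82-W-1 cells, measured with a cell viability assay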
Description: SANGER: Inhibition of human RO82-W-1 cell growth in a cell viability assay.

[33] = tested on: MeWo; type: functional, cell-based; settings: Homo sapiens;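 also: growth inhibition of MeWo cells, determined by a cell viability readout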
Description: SANGER: Inhibition of human Mewo cell growth in a cell viability assay.

[34] = tested on: COR-L105; type: functional, cell-based; settings: Homo sapiens;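 also: cell growth inhibition determined with a viability assay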
Description: SANGER: Inhibition of human COR-L105 cell growth in a cell viability assay.

[35] = tested on: ABC-1; type: functional, cell-based; settings: Homo sapiens;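 also: growth inhibition of human ABC-1 cells, read out by a cell viability assay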
Description: SANGER: Inhibition of human ABC-1 cell growth in a cell viability assay.

[36] = tested on: FaDu; type: functional, cell-based; settings: Homo sapiens;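 also: cell viability readout of growth inhibition in FaDu cells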
Description: SANGER: Inhibition of human FADU cell growth in a cell viability assay.

[37] = tested on: OE33; type: functional, cell-based; settings: Homo sapiens;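 also: growth inhibition of human OE33 cells, measured by a cell viability assay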
Description: SANGER: Inhibition of human OE33 cell growth in a cell viability assay.

[38] = tested on: HT1197; type: functional, cell-based, HT-1197; settings: Homo sapiens
Description: SANGER: Inhibition of human HT-1197 cell growth in a cell viability assay.

[39] = tested on: Capan-2; type: functional, cell-based; settings: Homo sapiens;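 also: Capan-2 cell growth inhibition, read out with a viability assay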
Description: SANGER: Inhibition of human Capan-2 cell growth in a cell viability assay.

[40] = tested on: HT-1080; type: functional, cell-based; settings: Homo sapiens
Description: SANGER: Inhibition of human HT-1080 cell growth in a cell viability assay.

[41] = tested on: Ca9-22; type: functional, cell-based; settings: Homo sapiens;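 also: growth inhibition of Ca9-22 cells, read out with a cell viability assay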
Description: SANGER: Inhibition of human Ca9-22 cell growth in a cell viability assay.

[42] = tested on: MDA-MB-157; type: functional, cell-based; settings: Homo sapiens
Description: SANGER: Inhibition of human MDA-MB-157 cell growth in a cell viability assay.

[43] = tested on: ChaGo-K-1; type: functional, cell-based; settings: Homo sapiens;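 also: growth inhibition of ChaGo-K-1 cells, read out with a cell viability assay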
Description: SANGER: Inhibition of human ChaGo-K-1 cell growth in a cell viability assay.

[44] = tested on: NB12; type: functional, cell-based; settings: Homo sapiens;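 also: growth inhibition of human NB12 cells, read out by a cell viability assay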
Description: SANGER: Inhibition of human NB12 cell growth in a cell viability assay.

[45] = tested on: SW1783; type: functional, cell-based; settings: Homo sapiens;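 also: cell growth inhibition measured with a viability assay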
Description: SANGER: Inhibition of human SW1783 cell growth in a cell viability assay.

[46] = tested on: CAL-27; type: functional, cell-based; settings: Homo sapiens;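 also: Viability-based readout, IC50 reflecting inhibition of CAL-27 cell growth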
Description: SANGER: Inhibition of human CAL-27 cell growth in a cell viability assay.

[47] = tested on: HCC1395; type: functional, cell-based; settings: Homo sapiens;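 also: growth inhibition of HCC1395 cells, read out by a cell viability assay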
Description: SANGER: Inhibition of human HCC1395 cell growth in a cell viability assay.

[48] = tested on: KYSE-180; type: functional, cell-based; settings: Homo sapiens;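 also: growth inhibition of KYSE-180 cells, read out with a cell viability assay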
Description: SANGER: Inhibition of human KYSE-180 cell growth in a cell viability assay.

[49] = tested on: MHH-ES-1; type: functional, cell-based; settings: Homo sapiens;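 also: cell growth inhibition measured by a cell viability assay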
Description: SANGER: Inhibition of human MHH-ES-1 cell growth in a cell viability assay.

[50] = tested on: LoVo; type: functional, cell-based; settings: Homo sapiens;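 also: growth inhibition of human LoVo cells, read out with a cell viability assay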
Description: SANGER: Inhibition of human LoVo cell growth in a cell viability assay.

[51] = tested on: BFTC-905; type: functional, cell-based; settings: Homo sapiens
Description: SANGER: Inhibition of human BFTC-905 cell growth in a cell viability assay.

[52] = tested on: UACC-62; type: functional, cell-based; settings: Homo sapiens;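 also: growth inhibition of human UACC-62 cells, read out by a cell viability assay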
Description: SANGER: Inhibition of human UACC-62 cell growth in a cell viability assay.

[53] = tested on: HGC-27; type: functional, cell-based; settings: Homo sapiens;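 also: growth inhibition of human HGC-27 cells, read out in a cell viability assay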
Description: SANGER: Inhibition of human HGC-27 cell growth in a cell viability assay.

[54] = tested on: NCI-H1563; type: functional, cell-based; settings: Homo sapiens;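 also: growth inhibition of human NCI-H1563 cells, read out with a cell viability assay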
Description: SANGER: Inhibition of human NCI-H1563 cell growth in a cell viability assay.

In the case of `Cn1cc(/C=C2\C(=O)Nc3cccnc32)c2ccccc21`, the IC50 [1] is reported as > 2000 nM, the IC50 [2] is reported as > 2000 nM and the IC50 [3] is reported as > 2000 nM. The IC50 [4] was > 2000 nM, the IC50 [5] was > 2000 nM and the IC50 [6] was > 2000 nM. The IC50 [7] was > 2000 nM, the IC50 [8] was > 2000 nM and the IC50 [9] was > 2000 nM. The IC50 [10] was 638 nM, the IC50 [11] was > 2000 nM and the IC50 [12] was > 2000 nM. For the same compound, the IC50 [13] was > 2000 nM, the IC50 [14] was > 2000 nM and the IC50 [15] was > 2000 nM. The IC50 [16] was > 2000 nM, the IC50 [17] was > 2000 nM and the IC50 [18] was > 2000 nM. The IC50 [19] was > 2000 nM, the IC50 [20] was > 2000 nM and the IC50 [21] was > 2000 nM. For the same compound, the IC50 [22] was > 2000 nM, the IC50 [23] was > 2000 nM and the IC50 [24] was > 2000 nM. The IC50 [25] was > 2000 nM, the IC50 [26] was > 2000 nM and the IC50 [27] was > 2000 nM. The IC50 [28] was > 2000 nM, the IC50 [29] was > 2000 nM and the IC50 [30] was > 2000 nM. For the same compound, the IC50 [31] was > 2000 nM, the IC50 [32] was > 2000 nM and the IC50 [33] was > 2000 nM. For the same compound, the IC50 [34] was 494 nM, the IC50 [35] was > 2000 nM and the IC50 [36] was > 2000 nM. For the same compound, the IC50 [37] was > 2000 nM, the IC50 [38] was > 2000 nM and the IC50 [39] was > 2000 nM. The IC50 [40] was > 2000 nM, the IC50 [41] was > 2000 nM and the IC50 [42] was > 2000 nM. The IC50 [43] was > 2000 nM, the IC50 [44] was > 2000 nM and the IC50 [45] was > 2000 nM. For the same compound, the IC50 [46] was > 2000 nM, the IC50 [47] was > 2000 nM and the IC50 [48] was > 2000 nM. The IC50 [49] was > 2000 nM, the IC50 [50] was > 2000 nM and the IC50 [51] was > 2000 nM. For the same compound, the IC50 [52] was > 2000 nM, the IC50 [53] was > 2000 nM and the IC50 [54] was > 2000 nM.

`Cn1c(=O)n(-c2ccc(C(C)(C)C#N)cc2)c2c3cc(-c4cnc5ccccc5c4)ccc3ncc21` [DACTOLISIB] gave an IC50 [1] of 198 nM, an IC50 [2] of 286 nM and an IC50 [3] of 246 nM. The IC50 [4] was < 7.81 nM, the IC50 [5] was 13.7 nM and the IC50 [6] was 83.1 nM. The IC50 [7] was 88.3 nM, the IC50 [8] was 168 nM and the IC50 [9] was 1170 nM. It also gave an IC50 [10] of 43.8 nM, an IC50 [12] of 87.5 nM and an IC50 [13] of 24.6 nM. It also gave an IC50 [14] of 25.1 nM, an IC50 [15] of 28.5 nM and an IC50 [16] of 187 nM. For the same compound, the IC50 [17] was 88.3 nM, the IC50 [18] was 124 nM and the IC50 [19] was 4.76 nM. It also gave an IC50 [20] of 1500 nM, an IC50 [21] of 82.9 nM and an IC50 [22] of 58 nM. It also gave an IC50 [23] of 53.3 nM, an IC50 [24] of 19.5 nM and an IC50 [25] of 89.8 nM. The IC50 [26] was 152 nM, the IC50 [28] was 341 nM and the IC50 [29] was 458 nM. For the same compound, the IC50 [30] was 113 nM, the IC50 [31] was 49.1 nM and the IC50 [32] was 59.9 nM. For the same compound, the IC50 [33] was 12 nM, the IC50 [34] was 15 nM and the IC50 [35] was 420 nM. For the same compound, the IC50 [36] was 267 nM, the IC50 [37] was 189 nM and the IC50 [38] was 238 nM. For the same compound, the IC50 [39] was > 2000 nM, the IC50 [40] was 21.9 nM and the IC50 [41] was 33.6 nM. For the same compound, the IC50 [42] was 35.4 nM, the IC50 [43] was 328 nM and the IC50 [44] was 528 nM. It also gave an IC50 [45] of 110 nM, an IC50 [46] of 217 nM and an IC50 [47] of 698 nM. The IC50 [48] was 46.2 nM, the IC50 [49] was 51.9 nM and the IC50 [50] was 48.4 nM. The IC50 [51] was 60.7 nM, the IC50 [52] was 168 nM and the IC50 [53] was 18.1 nM. The IC50 [54] was 105 nM.

For `CC(=O)c1c(C)c2cnc(Nc3ccc(N4CCNCC4)cn3)nc2n(C2CCCC2)c1=O` [PALBOCICLIB], the IC50 [1] was > 4000 nM, the IC50 [2] was > 4000 nM and the IC50 [3] was > 4000 nM. The IC50 [5] was > 4000 nM, the IC50 [6] was 747 nM and the IC50 [7] was 484 nM. The IC50 [8] was > 4000 nM, the IC50 [9] was > 4000 nM and the IC50 [10] was 779 nM. For the same compound, the IC50 [12] was 2070 nM, the IC50 [13] was 1260 nM and the IC50 [14] was > 4000 nM. The IC50 [15] was 634 nM, the IC50 [16] was > 4000 nM and the IC50 [17] was > 4000 nM. For the same compound, the IC50 [18] was > 4000 nM, the IC50 [19] was > 4000 nM and the IC50 [20] was 1320 nM. For the same compound, the IC50 [21] was > 4000 nM, the IC50 [22] was > 4000 nM and the IC50 [23] was 2620 nM. The IC50 [24] was 2590 nM, the IC50 [25] was > 4000 nM and the IC50 [26] was > 4000 nM. The IC50 [28] was > 4000 nM, the IC50 [29] was > 4000 nM and the IC50 [30] was 1010 nM. It also gave an IC50 [31] of 1680 nM, an IC50 [32] of 2620 nM and an IC50 [33] of 937 nM. For the same compound, the IC50 [34] was > 4000 nM, the IC50 [35] was 1790 nM and the IC50 [36] was > 4000 nM. The IC50 [37] was > 4000 nM, the IC50 [38] was > 4000 nM and the IC50 [39] was > 4000 nM. The IC50 [40] was 1380 nM, the IC50 [41] was > 4000 nM and the IC50 [42] was > 4000 nM. For the same compound, the IC50 [43] was > 4000 nM, the IC50 [44] was > 4000 nM and the IC50 [45] was > 4000 nM. The IC50 [46] was 495 nM, the IC50 [47] was > 4000 nM and the IC50 [48] was > 4000 nM. For the same compound, the IC50 [49] was 1180 nM, the IC50 [50] was > 4000 nM and the IC50 [51] was 1240 nM. For the same compound, the IC50 [52] was > 4000 nM, the IC50 [53] was 565 nM and the IC50 [54] was > 4000 nM.
